Results taken from patent EP1216701A1, “Process to increase the concentration of meiosis-activating sterols (MAS) in the cholesterol synthesis and the use of potent inhibitors in the process” (Schering Aktiengesellschaft, priority 2000, dated 2002).

Key:
HepG2 cells [1] = experiment: Accumulation of cholesterol precursors / C29-sterols (MAS) in HepG2 cells, GC/MS (SIM); assay type: cell-based, Human; details: HepG2 cells; for Increases in FF-MAS / Increases in T-MAS: 1 µM, refers to Table 1; for Dienol (m/z 486) / Enol T-MAS (m/z 484) / Trienol FF-MAS (m/z 482): ± SD; for suppression of the Δ24 reduction step (accumulation of desmosterol): absence of miconazole, 10 µM potent inhibitors or 1 µM tamoxifen for 12 h
Description: (§1) Human hepatoma HepG2 cells were cultured to confluency in 60-mm dishes in phenol-red-free Dulbecco's modified Eagle's medium (DMEM) containing Pen-Strep (100 µg/ml), glucose (10 mM), sodium bicarbonate (45 mM) and glutamine (4 mM) supplemented with 10% fetal calf serum as described previously (24). At the beginning of the experiment the medium was changed to serum-free DMEM supplemented with 10% lipid-free "controlled process serum replacement" (CPSR-1). Compounds were added from ethanolic stock solutions to produce final ethanol concentrations of 0.1-0.3% v/v. Controls received the same amount of ethanol. Aminotriazole was added in an aqueous solution. Slices of rat testis (25 µm; 25-50 mg wet weight) were incubated under the same conditions in a shaking water bath (37°C). For isotopomer spectral analysis (ISA) of lathosterol, 1-^13C-acetate was added in an aqueous solution to a final concentration of 1 mM.
(§2) Cells were washed three times with ice cold PBS (pH 7.4) (once with 2 mg/ml BSA and twice with PBS alone). Epicoprostanol (1 µg in 50 µl of hexane) was added as internal standard to each sample. Sterols were extracted in hexane/isopropanol (3:2 v/v; two times with 4 ml). After drying under nitrogen and alkaline hydrolysis (1 N NaOH in 80% ethanol, 1.5 h at 70°C), the sterols were extracted with cyclohexane (two times with 3 ml). After drying under nitrogen, sterols were converted to their trimethylsilyl (TMS) derivatives by adding 100 µl bis(trimethylsilyl)trifluoracetamide (Pierce)/n-decane (1:1; v/v) and heating for 1 h at 70°C in a conical glass tube. This solution (1-2 µl) was used for gas-chromatography/mass-spectrometry (GC/MS). Rat testes (0.05-0.15 g) were homogenized manually, and lipids were extracted in hexane/isopropanol (3:2 v/v; two times with 4 ml). The extracts were deproteinized with acetone (3 ml) and processed as described above. The observed sterol levels in testis were normalized to correspond to 0.1 g of tissue (wet weight).
Gas-chromatography was done in the splitless mode with temperature programming as follows: 150°C for 1 min, followed by 20°C/min up to 260°C and 10°C/min up to 280°C (hold for 15 min). Mass spectral data were collected either in the full-scan mode (m/z 50-550) or by selective ion monitoring (SIM). For SIM analyses the electron multiplier voltage was raised by 300 V after the elution of lathosterol to increase the sensitivity of detection for lanosterol, dihydrolanosterol, methylsterols, dimethylsterols and plant sterols. The internal standard epicoprostanol was monitored at m/z 370. […] Peak integration was performed manually, and sterols were quantified from SIM analyses against the internal standard. Unless stated otherwise, MAS amounts are given as a percentage of the control.

rat testis = experiment: Levels of C29-sterols in rat testis slices, GC/MS (SIM); assay type: cell-based, Sprague-Dawley rats; details: 9 h, n=3, ± SD
Description: Unless specified otherwise, potent inhibitors, drugs, chemicals, and cell culture supplies were purchased from Sigma. T-MAS and FF-MAS were synthesized as reported recently (5) and used as reference compounds. 1-^13C-acetate was obtained from Cambridge Isotope Laboratories. Rat testes were obtained from Sprague-Dawley rats (weight <50g).
as §1, §2
(§3) Analyses were performed on a Hewlett-Packard GC/MS system (5890 series II GC interfaced to a 5971 mass selective detector) equipped with a DB-XLB column (30 m x 0.25 mm i.d. x 0.25 µm film; J&W). Gas-chromatography was done in the splitless mode with temperature programming as follows: 150°C for 1 min, followed by 20°C/min up to 260°C and 10°C/min up to 280°C (hold for 15 min). Mass spectral data were collected either in the full-scan mode (m/z 50-550) or by selective ion monitoring (SIM). For SIM analyses the electron multiplier voltage was raised by 300 V after the elution of lathosterol to increase the sensitivity of detection for lanosterol, dihydrolanosterol, methylsterols, dimethylsterols and plant sterols. The internal standard epicoprostanol was monitored at m/z 370. In unlabeled experiments, cholesterol precursors and plant sterols were monitored by the following ions: desmosterol (m/z 456; 441 and 351); Δ8-cholestenol (m/z 458); lathosterol (m/z 458); monounsaturated methylsterols (m/z 472); diunsaturated methylsterols (m/z 470); monounsaturated dimethylsterols (m/z 486); diunsaturated dimethylsterols (m/z 484); triunsaturated dimethylsterols (m/z 482); lanosterol (m/z 498 and 393) and dihydrolanosterol (m/z 500 and 395). Peak integration was performed manually, and sterols were quantified from SIM analyses against the internal standard. Unless stated otherwise, MAS amounts are given as a percentage of the control. When 1-^13C-acetate was used in the culture medium for ISA, up to 10 ions (M+0- M+10) were monitored for the TMS derivatives of lathosterol (m/z 458-468), T-MAS (m/z 484-494) and FF-MAS (m/z 482-492).

Δ24-reductase = molecular target: T1, Δ24-reductase (Homo sapiens, UniProt Q15392); experiment: Δ24-reductase assay (conversion of lanosterol to dihydrolanosterol in the presence of miconazole); assay type: cell-based; details: HepG2 cells; conversion of lanosterol to dihydrolanosterol with added miconazole
T1 construct: endogenous in cells; host or cells: HepG2
T1 sequence (Q15392 23-516): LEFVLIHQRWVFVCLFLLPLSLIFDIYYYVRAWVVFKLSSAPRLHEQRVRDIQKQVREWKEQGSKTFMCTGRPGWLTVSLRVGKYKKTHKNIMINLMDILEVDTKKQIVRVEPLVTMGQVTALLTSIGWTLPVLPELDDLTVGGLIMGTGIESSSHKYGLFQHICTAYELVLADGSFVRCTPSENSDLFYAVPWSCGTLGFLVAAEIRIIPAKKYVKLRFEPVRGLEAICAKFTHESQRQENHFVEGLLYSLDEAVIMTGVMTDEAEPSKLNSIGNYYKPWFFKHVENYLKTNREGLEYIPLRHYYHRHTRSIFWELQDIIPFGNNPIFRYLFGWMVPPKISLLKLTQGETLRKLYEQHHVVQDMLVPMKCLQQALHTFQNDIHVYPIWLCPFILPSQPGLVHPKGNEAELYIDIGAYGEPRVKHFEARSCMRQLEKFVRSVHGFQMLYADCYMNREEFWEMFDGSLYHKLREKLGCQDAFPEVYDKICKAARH
Description: HepG2 cells were incubated for 12 h with 10 µM simvastatin (a kind gift from M. Stapff (MSD, Germany)) to deplete cholesterol precursors. Thereafter, the medium was changed to one containing 10 µM simvastatin, 10 µM miconazole (an inhibitor of 14α-demethylation) and 6 µg/dish lanosterol. After 12 h incubation, neutral sterols were extracted as described above, and the samples were monitored for lanosterol (m/z 498 (M^+) and m/z 393 (M-TMSOH-CH3)) and dihydrolanosterol (m/z 500 (M^+) and m/z 395 (M-TMSOH-CH3)) by GC/MS. Dihydrolanosterol was quantified by comparing the ratio of SIM abundances at m/z 395 and 370 (epicoprostanol) against a standard curve constructed from SIM results on mixtures of authentic dihydrolanosterol and epicoprostanol. Desmosterol was quantified analogously by SIM.

HepG2 cells [2] = experiment: Isotopomer spectral analysis (ISA) of flux of 13C-acetate to lathosterol and cholesterol; assay type: cell-based, Human; details: 10 µM, 12 h, 1 mM 1-13C-acetate
Description: as §1, §3
ISA was carried out as described previously (25) by incubating cells with 1-13C-acetate. The isotopomer distribution in sterols synthesized from 1-^13C-acetate provided the fractional synthesis rate g(t) of the product and the enrichment D of the labeled precursor pool. These parameters were calculated by nonlinear regression analysis as described previously (25,26). Because here we used the molecular ions containing the TMS group for the ISA calculations, the ISA program was modified to correct for the additional C, H and Si atoms from the derivatization reagent. Statistical differences were assessed by Student's t-test and considered significant for P<0.05.

[3] = 12-h incubation with 10 µM, n=3 incubations
[4] = Conc. 1 µM (combinations 1 + 1 µM), 24 h, n=3
[5] = Conc. 10 µM (combinations 10 + 10 µM), 12 h, n=2
[6] = Conc. 10 µM (combination 10 + 10 µM)

Compound	Increases in FF-MAS (HepG2 cells [1]) [fold]	Increases in T-MAS (HepG2 cells [1]) [fold]	Dienol (m/z 486) (HepG2 cells [1]; [4])	Enol T-MAS (m/z 484) (HepG2 cells [1]; [4])	Dienol (m/z 486) (HepG2 cells [1]; [5])	Enol T-MAS (m/z 484) (HepG2 cells [1]; [5])	Trienol FF-MAS (m/z 482) (HepG2 cells [1]; [5])	suppression of the Δ24 reduction step (accumulation of desmosterol) (HepG2 cells [1])	Dienol (m/z 486) (rat testis; [6])	Enol T-MAS (m/z 484) (rat testis; [6])	Trienol FF-MAS (m/z 482) (rat testis; [6])	Dienol (m/z 486) (rat testis; Conc. 20 µM)	Enol T-MAS (m/z 484) (rat testis; Conc. 20 µM)	Trienol FF-MAS (m/z 482) (rat testis; Conc. 20 µM)	order of suppression of Δ24 reduction (Δ24-reductase)	lowering of the total amount of lathosterol (HepG2 cells [2])	reduction of de novo lathosterol synthesis (HepG2 cells [2])	also measured
CC(=O)[C@H]1CC[C@H]2[C@@H]3CCC4=CC(=O)CC[C@]4(C)[C@H]3CC[C@]12C [Progesterone]	4	9	77 ± 9 % of control	192 ± 41 % of control	26 ± 3 % of control	1000 ± 106 % of control	3335 ± 397 % of control	strongly suppressed	109 ± 1 % of control	107 ± 1 % of control	336 ± 12 % of control	103 ± 14 % of control	129 ± 10 % of control	487 ± 37 % of control	pregnenolone > progesterone > 17α-OH-pregnenolone >> 17α-OH-progesterone	ca. 50%	more than 60%	desmosterol as share of the cholesterol content of the cells (HepG2 cells [1]; 12-h incubation with 10 µM): 2.1%; cholesterol (HepG2 cells [1]; [3]): 269 ± 3 µg; desmosterol (HepG2 cells [1]; [3]): 5.7 ± 0.07 µg
CC(=O)[C@@]1(O)CC[C@H]2[C@@H]3CCC4=CC(=O)CC[C@]4(C)[C@H]3CC[C@@]21C [17α-OH-Progesterone, 17α-Hydroxy-progesterone]	4	9	246 ± 26 % of control	162 ± 15 % of control	2384 ± 236 % of control	2003 ± 201 % of control	406 ± 52 % of control	not	199 ± 19 % of control	201 ± 26 % of control	171 ± 8 % of control	223 ± 25 % of control	225 ± 22 % of control	240 ± 40 % of control	pregnenolone > progesterone > 17α-OH-pregnenolone >> 17α-OH-progesterone	ca. 50%	more than 60%	Trienol FF-MAS (m/z 482) (HepG2 cells [1]; [4]): 120 ± 14 % of control
